Experimental data as given in ChEMBL document CHEMBL4507274 (2021).

Columns and labels:
[1] = biological target: Dual specificity protein kinase CLK4 (Homo sapiens) (UniProt Q9HAZ1); settings: Compound concentration 100.0 nM
[2] = biological target: SNF-related serine/threonine-protein kinase (Homo sapiens) (UniProt Q9NRH2); settings: Compound concentration 100.0 nM
[3] = biological target: Serine/threonine-protein kinase MRCK gamma (Homo sapiens) (UniProt Q6DT37); settings: Compound concentration 100.0 nM
[4] = biological target: Mitogen-activated protein kinase kinase kinase 11 (Homo sapiens) (UniProt Q16584); settings: Compound concentration 100.0 nM
Chain of Mitogen-activated protein kinase kinase kinase 11 (Homo sapiens) (Q16584 whole entry, looked up): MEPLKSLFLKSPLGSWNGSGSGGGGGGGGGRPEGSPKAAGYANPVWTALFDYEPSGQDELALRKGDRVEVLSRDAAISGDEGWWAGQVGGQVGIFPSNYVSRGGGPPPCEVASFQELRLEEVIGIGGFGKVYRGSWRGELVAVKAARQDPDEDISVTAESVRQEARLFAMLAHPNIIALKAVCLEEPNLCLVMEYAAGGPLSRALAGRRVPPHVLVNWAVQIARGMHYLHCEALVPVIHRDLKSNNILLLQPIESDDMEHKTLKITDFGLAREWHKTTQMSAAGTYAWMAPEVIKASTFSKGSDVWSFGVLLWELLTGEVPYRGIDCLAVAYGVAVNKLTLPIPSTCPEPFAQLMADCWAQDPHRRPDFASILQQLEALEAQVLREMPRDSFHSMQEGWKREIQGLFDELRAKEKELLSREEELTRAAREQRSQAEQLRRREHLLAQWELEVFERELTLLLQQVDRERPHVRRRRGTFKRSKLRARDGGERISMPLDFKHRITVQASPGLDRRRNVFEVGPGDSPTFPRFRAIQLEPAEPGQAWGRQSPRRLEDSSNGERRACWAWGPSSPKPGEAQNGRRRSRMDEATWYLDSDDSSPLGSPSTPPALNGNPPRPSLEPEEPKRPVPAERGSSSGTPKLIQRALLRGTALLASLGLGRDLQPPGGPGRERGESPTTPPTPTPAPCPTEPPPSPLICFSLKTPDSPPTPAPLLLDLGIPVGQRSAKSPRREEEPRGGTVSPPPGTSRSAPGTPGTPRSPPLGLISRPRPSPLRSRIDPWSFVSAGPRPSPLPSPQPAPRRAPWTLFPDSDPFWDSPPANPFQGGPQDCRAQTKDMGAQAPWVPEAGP

[5] = biological target: Tyrosine-protein kinase JAK2 (Homo sapiens) (UniProt O60674); settings: Compound concentration 100.0 nM
[6] = biological target: Beta-3 adrenergic receptor (Homo sapiens) (UniProt P13945); settings: Compound concentration 10.0 uM
[7] = biological target: STE20/SPS1-related proline-alanine-rich protein kinase (Homo sapiens) (UniProt Q9UEW8); settings: Compound concentration 100.0 nM
[8] = biological target: GABA-A receptor; anion channel (Rattus norvegicus) (UniProt O09028+P15431+P18506+P18508+P19969+P20236+P23574+P23576+P28471+P28473+P30191+P62813+P63079+P63138+Q91ZM7+Q9ES14); settings: Compound concentration 10.0 uM
[9] = biological target: Muscarinic acetylcholine receptor M1 (Homo sapiens) (UniProt P11229); settings: Compound concentration 10.0 uM
[10] = biological target: Serine/threonine-protein kinase 38 (Homo sapiens) (UniProt Q15208); settings: Compound concentration 100.0 nM
[11] = biological target: Serine/threonine-protein kinase TNNI3K (Homo sapiens) (UniProt Q59H18); settings: Compound concentration 100.0 nM
[12] = biological target: TRAF2 and NCK-interacting protein kinase (Homo sapiens) (UniProt Q9UKE5); settings: Compound concentration 100.0 nM
[13] = biological target: Myosin light chain kinase, smooth muscle (Homo sapiens) (UniProt Q15746); settings: Compound concentration 100.0 nM
[14] = test system: Mast/stem cell growth factor receptor Kit (Homo sapiens), P10721 [V559D]; settings: Compound concentration 100.0 nM
Chain of Mast/stem cell growth factor receptor Kit (Homo sapiens), P10721 [V559D] (P10721 whole entry V559D): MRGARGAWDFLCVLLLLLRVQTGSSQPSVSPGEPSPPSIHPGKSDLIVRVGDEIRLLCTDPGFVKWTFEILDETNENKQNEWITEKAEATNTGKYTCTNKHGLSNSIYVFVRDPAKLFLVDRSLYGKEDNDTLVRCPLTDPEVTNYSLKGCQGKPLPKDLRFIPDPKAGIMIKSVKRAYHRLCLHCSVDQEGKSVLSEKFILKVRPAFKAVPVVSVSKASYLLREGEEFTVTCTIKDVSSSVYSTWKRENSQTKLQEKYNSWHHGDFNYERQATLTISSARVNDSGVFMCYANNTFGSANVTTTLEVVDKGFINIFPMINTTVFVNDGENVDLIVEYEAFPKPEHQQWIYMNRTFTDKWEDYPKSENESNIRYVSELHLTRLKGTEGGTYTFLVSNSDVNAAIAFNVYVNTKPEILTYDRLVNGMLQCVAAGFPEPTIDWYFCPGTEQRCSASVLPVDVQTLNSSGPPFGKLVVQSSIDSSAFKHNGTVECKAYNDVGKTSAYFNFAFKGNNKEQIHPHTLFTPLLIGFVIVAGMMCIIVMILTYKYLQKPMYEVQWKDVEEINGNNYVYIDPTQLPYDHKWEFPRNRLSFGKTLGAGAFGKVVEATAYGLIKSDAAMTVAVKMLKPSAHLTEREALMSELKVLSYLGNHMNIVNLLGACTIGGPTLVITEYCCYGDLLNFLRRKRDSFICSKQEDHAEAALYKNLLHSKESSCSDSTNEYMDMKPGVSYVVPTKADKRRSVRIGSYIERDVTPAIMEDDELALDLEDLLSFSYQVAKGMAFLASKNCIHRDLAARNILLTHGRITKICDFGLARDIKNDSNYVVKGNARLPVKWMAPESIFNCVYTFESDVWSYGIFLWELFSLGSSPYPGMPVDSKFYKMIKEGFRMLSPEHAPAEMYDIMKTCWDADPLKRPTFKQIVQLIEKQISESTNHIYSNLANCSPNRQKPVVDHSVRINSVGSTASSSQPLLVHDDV

[15] = biological target: Non-receptor tyrosine-protein kinase TYK2 (Homo sapiens) (UniProt P29597); settings: Compound concentration 100.0 nM
Chain of Non-receptor tyrosine-protein kinase TYK2 (Homo sapiens) (P29597 whole entry): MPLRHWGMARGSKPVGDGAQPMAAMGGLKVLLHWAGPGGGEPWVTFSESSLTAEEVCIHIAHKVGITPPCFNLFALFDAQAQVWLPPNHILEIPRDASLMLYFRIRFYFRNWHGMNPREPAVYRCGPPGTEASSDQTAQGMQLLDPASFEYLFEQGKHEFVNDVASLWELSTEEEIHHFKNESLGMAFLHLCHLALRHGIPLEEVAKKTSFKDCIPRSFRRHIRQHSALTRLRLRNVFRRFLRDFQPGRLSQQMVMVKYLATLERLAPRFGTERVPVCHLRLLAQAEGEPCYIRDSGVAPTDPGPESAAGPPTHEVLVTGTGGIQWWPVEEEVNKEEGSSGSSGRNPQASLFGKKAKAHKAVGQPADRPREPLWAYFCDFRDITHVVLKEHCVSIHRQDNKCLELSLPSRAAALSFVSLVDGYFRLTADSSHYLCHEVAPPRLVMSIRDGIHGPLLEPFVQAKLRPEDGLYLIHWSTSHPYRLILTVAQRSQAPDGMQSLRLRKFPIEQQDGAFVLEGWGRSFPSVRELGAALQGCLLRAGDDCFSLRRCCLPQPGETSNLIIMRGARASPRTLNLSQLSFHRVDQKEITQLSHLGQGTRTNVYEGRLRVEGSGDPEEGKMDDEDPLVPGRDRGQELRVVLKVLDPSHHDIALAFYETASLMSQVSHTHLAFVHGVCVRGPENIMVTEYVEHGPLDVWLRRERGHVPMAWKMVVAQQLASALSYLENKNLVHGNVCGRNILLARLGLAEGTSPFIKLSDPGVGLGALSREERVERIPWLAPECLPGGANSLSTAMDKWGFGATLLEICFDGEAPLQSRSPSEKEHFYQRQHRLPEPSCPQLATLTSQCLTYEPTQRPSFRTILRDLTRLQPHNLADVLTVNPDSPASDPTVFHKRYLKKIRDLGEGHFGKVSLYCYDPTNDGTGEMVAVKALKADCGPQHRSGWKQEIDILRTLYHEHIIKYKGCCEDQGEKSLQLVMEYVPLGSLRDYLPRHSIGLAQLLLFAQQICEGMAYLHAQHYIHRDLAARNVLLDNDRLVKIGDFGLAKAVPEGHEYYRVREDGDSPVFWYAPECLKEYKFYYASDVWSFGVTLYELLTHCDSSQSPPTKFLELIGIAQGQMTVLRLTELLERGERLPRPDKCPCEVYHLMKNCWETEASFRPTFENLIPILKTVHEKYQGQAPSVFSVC

[16] = biological target: Ephrin type-A receptor 4 (Homo sapiens) (UniProt P54764); settings: Compound concentration 100.0 nM
[17] = biological target: Serine/threonine-protein kinase LATS1 (Homo sapiens) (UniProt O95835); settings: Compound concentration 100.0 nM
[18] = biological target: Cyclin-dependent kinase 13 (Homo sapiens) (UniProt Q14004); settings: Compound concentration 100.0 nM
[19] = biological target: Sigma non-opioid intracellular receptor 1 (Homo sapiens, UniProt Q99720); settings: Compound concentration 10.0 uM
Chain of Sigma non-opioid intracellular receptor 1 (Q99720 whole entry): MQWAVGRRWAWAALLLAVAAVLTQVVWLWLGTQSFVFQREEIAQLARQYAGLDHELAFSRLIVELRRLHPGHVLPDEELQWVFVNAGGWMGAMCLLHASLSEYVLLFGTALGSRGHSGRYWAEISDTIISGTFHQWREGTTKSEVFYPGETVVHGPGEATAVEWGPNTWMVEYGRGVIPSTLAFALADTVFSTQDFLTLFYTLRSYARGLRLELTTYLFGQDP

[20] = biological target: Dual specificity mitogen-activated protein kinase kinase 3 (Homo sapiens) (UniProt P46734); settings: Compound concentration 100.0 nM
Chain of Dual specificity mitogen-activated protein kinase kinase 3 (Homo sapiens) (P46734 whole entry): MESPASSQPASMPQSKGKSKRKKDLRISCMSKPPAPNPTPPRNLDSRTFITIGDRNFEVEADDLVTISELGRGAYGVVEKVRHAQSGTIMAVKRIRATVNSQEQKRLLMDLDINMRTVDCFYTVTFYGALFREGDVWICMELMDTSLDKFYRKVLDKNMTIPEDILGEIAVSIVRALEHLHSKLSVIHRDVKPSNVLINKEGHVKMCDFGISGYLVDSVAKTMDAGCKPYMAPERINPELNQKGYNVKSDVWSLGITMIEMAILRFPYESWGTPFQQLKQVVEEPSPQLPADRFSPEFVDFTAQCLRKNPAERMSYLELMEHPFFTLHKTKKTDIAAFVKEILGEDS

[21] = biological target: Testis-specific serine/threonine-protein kinase 1 (Homo sapiens) (UniProt Q9BXA7); settings: Compound concentration 100.0 nM
[22] = biological target: 5-hydroxytryptamine receptor 2C (Homo sapiens) (UniProt P28335); settings: Compound concentration 10.0 uM
[23] = biological target: Tyrosine-protein kinase HCK (Homo sapiens) (UniProt P08631); settings: Compound concentration 100.0 nM
[24] = biological target: Hormonally up-regulated neu tumor-associated kinase (Homo sapiens) (UniProt P57058); settings: Compound concentration 100.0 nM
[25] = biological target: Casein kinase I isoform gamma-1 (Homo sapiens) (UniProt Q9HCP0); settings: Compound concentration 100.0 nM
[26] = biological target: Serine/threonine-protein kinase RIO1 (Homo sapiens) (UniProt Q9BRS2); settings: Compound concentration 100.0 nM
[27] = test system: Tyrosine-protein kinase ABL1 (Homo sapiens), P00519 [E255K]; settings: Compound concentration 100.0 nM
[28] = biological target: Mitogen-activated protein kinase kinase kinase 2 (Homo sapiens) (UniProt Q9Y2U5); settings: Compound concentration 100.0 nM
Chain of Mitogen-activated protein kinase kinase kinase 2 (Homo sapiens) (Q9Y2U5 whole entry): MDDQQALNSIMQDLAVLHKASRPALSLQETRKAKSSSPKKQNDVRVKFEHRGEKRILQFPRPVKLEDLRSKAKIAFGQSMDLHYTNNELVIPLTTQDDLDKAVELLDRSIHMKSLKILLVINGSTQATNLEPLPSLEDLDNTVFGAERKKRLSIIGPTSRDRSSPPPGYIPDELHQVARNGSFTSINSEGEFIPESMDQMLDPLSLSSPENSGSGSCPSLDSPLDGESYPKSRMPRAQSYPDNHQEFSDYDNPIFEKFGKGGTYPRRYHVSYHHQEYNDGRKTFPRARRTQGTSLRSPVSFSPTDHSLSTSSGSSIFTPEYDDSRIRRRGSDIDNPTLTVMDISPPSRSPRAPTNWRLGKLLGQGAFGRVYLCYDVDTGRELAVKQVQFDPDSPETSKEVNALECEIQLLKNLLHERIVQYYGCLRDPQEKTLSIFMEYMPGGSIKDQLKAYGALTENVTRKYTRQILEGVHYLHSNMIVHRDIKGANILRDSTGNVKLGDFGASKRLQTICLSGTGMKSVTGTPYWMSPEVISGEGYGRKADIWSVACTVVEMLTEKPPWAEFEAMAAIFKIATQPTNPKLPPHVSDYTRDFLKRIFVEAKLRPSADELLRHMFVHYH

[29] = test system: Mast/stem cell growth factor receptor Kit (Homo sapiens), P10721 [L576P]; settings: Compound concentration 100.0 nM
[30] = biological target: Mitogen-activated protein kinase 11 (Homo sapiens) (UniProt Q15759); settings: Compound concentration 100.0 nM
Chain of Mitogen-activated protein kinase 11 (Homo sapiens) (Q15759 whole entry): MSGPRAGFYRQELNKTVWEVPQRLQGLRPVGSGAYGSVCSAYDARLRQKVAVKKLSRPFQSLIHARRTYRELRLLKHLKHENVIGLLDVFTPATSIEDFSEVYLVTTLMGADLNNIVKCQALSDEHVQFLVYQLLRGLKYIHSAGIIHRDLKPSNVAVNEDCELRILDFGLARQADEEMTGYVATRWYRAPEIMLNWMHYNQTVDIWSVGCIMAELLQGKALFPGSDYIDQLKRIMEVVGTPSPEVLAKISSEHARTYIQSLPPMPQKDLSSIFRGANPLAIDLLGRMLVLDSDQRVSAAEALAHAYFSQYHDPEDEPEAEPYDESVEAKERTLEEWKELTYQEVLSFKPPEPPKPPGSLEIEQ

[31] = biological target: Tyrosine-protein kinase receptor Tie-1 (Homo sapiens) (UniProt P35590); settings: Compound concentration 100.0 nM
[32] = biological target: Serine/threonine-protein kinase STK11 (Homo sapiens) (UniProt Q15831); settings: Compound concentration 100.0 nM
Chain of Serine/threonine-protein kinase STK11 (Homo sapiens) (Q15831 whole entry): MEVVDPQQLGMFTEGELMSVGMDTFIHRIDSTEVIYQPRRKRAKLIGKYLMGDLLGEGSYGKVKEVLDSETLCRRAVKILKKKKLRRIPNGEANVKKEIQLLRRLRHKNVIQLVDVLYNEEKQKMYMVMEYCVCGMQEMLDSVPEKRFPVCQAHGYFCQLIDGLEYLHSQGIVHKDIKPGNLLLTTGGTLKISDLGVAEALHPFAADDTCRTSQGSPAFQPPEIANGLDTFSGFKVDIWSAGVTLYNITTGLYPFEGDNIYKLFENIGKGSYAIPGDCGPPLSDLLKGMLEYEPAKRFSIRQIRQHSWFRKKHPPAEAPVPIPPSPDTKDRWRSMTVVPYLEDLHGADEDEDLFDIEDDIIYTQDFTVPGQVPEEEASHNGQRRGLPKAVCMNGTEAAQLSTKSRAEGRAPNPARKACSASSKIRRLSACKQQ

[33] = biological target: MAP/microtubule affinity-regulating kinase 3 (Homo sapiens) (UniProt P27448); settings: Compound concentration 100.0 nM

Structure (SMILES) | residual activity [1] [%] | residual activity [2] [%] | residual activity [3] [%] | residual activity [4] [%] | residual activity [5] [%] | inhibition [6] [%] | residual activity [7] [%] | inhibition [8] [%] | inhibition [9] [%] | residual activity [10] [%] | residual activity [11] [%] | residual activity [12] [%] | residual activity [13] [%] | residual activity [14] [%] | residual activity [15] [%] | residual activity [16] [%] | residual activity [17] [%] | residual activity [18] [%] | inhibition [19] [%] | residual activity [20] [%] | also measured
Cc1c[nH]c2nccc(Oc3c(F)cc(Nc4cc(Cl)nc(N)n4)cc3F)c12 [BAY-549] | 86 | 77 | 68 | 100 | 75 | 22 | 94 | 4.87 | -0.22 | 89 | 98 | 100 | 80 | 90 | 78 | 100 | 42 | 73 | 54.8 | 100 | residual activity [21]: 95%; inhibition [22]: 22.1%; residual activity [23]: 100%; residual activity [24]: 100%; residual activity [25]: 100%; residual activity [26]: 100%; residual activity [27]: 100%; residual activity [28]: 89%; residual activity [29]: 72%; residual activity [30]: 97%; residual activity [31]: 94%; residual activity [32]: 100%; residual activity [33]: 74%
Cn1cc(Cl)c2c(Oc3c(F)cc(Nc4cc(Cl)nc(N)n4)cc3F)ccnc21 [BAY-4900] | 100 | 86 | 100 | 100 | 72 | 3.48 | 100 | 1.6 | -5.04 | 87 | 78 | 96 | 95 | 96 | 81 | 100 | 69 | 77 | 22.3 | 94 | residual activity [21]: 100%; inhibition [22]: 2.72%; residual activity [23]: 100%; residual activity [24]: 100%; residual activity [25]: 100%; residual activity [26]: 100%; residual activity [27]: 100%; residual activity [28]: 79%; residual activity [29]: 100%; residual activity [30]: 100%; residual activity [31]: 100%; residual activity [32]: 100%; residual activity [33]: 83%
